Experimental data from publication PMC6399351, “Cationic Intrinsically Disordered Antimicrobial Peptides (CIDAMPs) Represent a New Paradigm of Innate Defense with a Potential for Novel Anti-Infectives” (Scientific Reports, 2019).
Several values for one entry are separate records, joined by “and”; a condition that tells them apart may be missing. Equal entries are not always repeated. Where two headings read alike, the source gives them in different places. Square brackets hold non-standard residues; d marks the D form. Ends that are not written are not given here. Peptide text beside a SMILES is read from it. * marks the point of attachment. Palmitoyl = CCCCCCCCCCCCCCCC(=O)*; Myristoyl = CCCCCCCCCCCCCC(=O)*

Legend:
[1] = tested on: P. aeruginosa ATCC 10145; conditions: CFU assay, 10 mM NaP
[2] = tested on: S. aureus ATCC 6538; conditions: CFU assay, 10 mM NaP

Compound | LD90 ([1]; pH 5.5, 0.25% glucose) | LD100 ([1]; pH 5.5, 0.25% glucose) | LD90 ([1]; pH 5.5, 1% TSB) | LD100 ([1]; pH 5.5, 1% TSB) | other results
HAHSGHGQSTQRGSR [FLG-22082-2096] | 0.15 µg/mL | 1.18 µg/mL | – | – | –
GSGSRQSSSYGRHGSGSGR [HR 2-4S] | – | – | 150 µg/mL | > 300 µg/mL | –
LGHSSSHGQHGSGSGRSSSRGPYESRLGH [HR 1-36] | 0.15 µg/mL | 2.35 µg/mL | – | – | –
HTHSGHTHSQARSQHGESESTVHKR [FLG-21894-1918] | 0.038 µg/mL | 0.3 µg/mL | – | – | –
GRGGSGLGGSSSGGQGGSGSGRSSSRGPY [HR 1-174H-4G] | 75 µg/mL | > 300 µg/mL | – | – | –
GRHGSGLGHSSSHGQHGSGSGRSSSGGPY [HR 1-17R3-G] | 0.038 µg/mL | 0.15 to 0.3 µg/mL | – | – | –
HGSGSGR [HR 2-9] | – | – | > 300 µg/mL | > 300 µg/mL | –
HGQSTQRGSRTAGRRGSGH [FLG-22087-2105] | 0.075 µg/mL | 1.18 µg/mL | – | – | –
CCCCCCCCCCCCCCCC(=O)SC[C@H](NC(=O)[C@H](CO)NC(=O)[C@H](CO)NC(=O)[C@H](CO)NC(=O)[C@H](CCC(N)=O)NC(=O)CNC(=O)[C@H](CO)NC(=O)[C@H](C)NC(=O)[C@H](CO)NC(=O)CNC(=O)[C@H](Cc1c[nH]cn1)NC(=O)[C@H](CCC(N)=O)NC(=O)CNC(=O)[C@H](Cc1c[nH]cn1)NC(=O)[C@@H](NC(=O)[C@H](CO)NC(=O)[C@H](CO)NC(=O)[C@H](Cc1c[nH]cn1)NC(=O)CNC(=O)[C@H](CO)NC(=O)[C@H](CO)NC(=O)[C@H](CO)NC(=O)CNC(=O)[C@H](Cc1c[nH]cn1)NC(=O)[C@H](CCC(N)=O)NC(=O)CN)[C@@H](C)O)C(N)=O [S-Pal-HRNR2004–2029] (H-GQHGSSSGHSSTHGQHGSASGQSSSC(Palmitoyl)-NH2; N-terminus assumed) | – | – | – | – | LD90 ([2]; pH 5.5, 0.25% glucose): 0.59 µg/mL; LD100 ([2]; pH 5.5, 0.25% glucose): > 150 µg/mL and 75 µg/mL
GRHGSGLGHSSSHGQH [HR 1-25] | 0.3 µg/mL | 4.7 µg/mL | – | – | –
GRHGSGSGQSSSYSPYGSGSGWSSSRGPY [HRNR2422-2450] | – | – | 2.35 µg/mL | > 300 µg/mL | –
SSSSR [HR 1-9] | – | – | – | > 300 µg/mL | –
HGSSSGSSSHYGQHGSGSR [HR 1-4] | – | – | 150 µg/mL | > 300 µg/mL | –
HAHSGHGQSTQRGSRTAGRRGSGH [FLG-22082-2105] | < 0.038 µg/mL | 0.075 µg/mL | – | – | –
TAGRRGSGH [FLG-22097-2105] | > 300 µg/mL | > 300 µg/mL | – | – | –
SQHGSGSGHSSGYGQHGSR [HR 1-1] | – | – | > 300 µg/mL | > 300 µg/mL | –
GGHGSGLGHSSSHGQHGSGSGRSSSRGPY [HR 1-17R1-G] | 0.038 µg/mL | 0.3 µg/mL | – | – | –
HGSGLGHSSSHGQHGSGSGR [HR 1-8] | 4.7 µg/mL | > 300 µg/mL | – | > 300 µg/mL | –
CCCCCCCCCCCCCC(=O)NCC(=O)N[C@@H](CCCNC(=N)N)C(=O)N[C@@H](CCCNC(=N)N)C(=O)NCC(=O)N[C@@H](CO)C(=O)NCC(=O)N[C@@H](CC(C)C)C(=O)NCC(=O)N[C@@H](CCCNC(=N)N)C(=O)N[C@@H](CO)C(=O)N[C@@H](CO)C(=O)N[C@@H](CO)C(=O)N[C@@H](CCCNC(=N)N)C(=O)NCC(=O)N[C@@H](CCC(N)=O)C(=O)N[C@@H](CCCNC(=N)N)C(=O)NCC(=O)N[C@@H](CO)C(=O)NCC(=O)N[C@@H](CO)C(=O)NCC(=O)N[C@@H](CCCNC(=N)N)C(=O)O [Myr-HR 1-18-HR] (Myristoyl-GRRGSGLGRSSSRGQRGSGSGR-OH; C-terminus assumed) | – | – | – | – | LD90 ([2]; pH 7.3, 1% TSB): 18.75 µg/mL; LD100 ([2]; pH 7.3, 1% TSB): 75 µg/mL
HTHSGHAHGQAGSQHGESGSSVHER [FLG-22044-2068] | 0.038 µg/mL | 0.3 µg/mL | – | – | –
GSGSRQSPSYGRQGSGSGR [HR 2-4Q] | – | – | > 300 µg/mL | > 300 µg/mL | –
CCCCCCCCCCCCCCCC(=O)SC[C@H](NC(=O)[C@H](CO)NC(=O)[C@H](CO)NC(=O)[C@H](CO)NC(=O)[C@H](CCC(N)=O)NC(=O)CNC(=O)[C@H](CO)NC(=O)[C@@H](NC(=O)[C@H](CO)NC(=O)CNC(=O)[C@H](Cc1c[nH]cn1)NC(=O)[C@H](CCC(N)=O)NC(=O)CNC(=O)[C@H](Cc1c[nH]cn1)NC(=O)[C@@H](NC(=O)[C@H](CO)NC(=O)[C@H](CO)NC(=O)[C@H](Cc1c[nH]cn1)NC(=O)CNC(=O)[C@H](CO)NC(=O)[C@H](CO)NC(=O)[C@H](CO)NC(=O)CNC(=O)[C@H](Cc1c[nH]cn1)NC(=O)[C@H](CCC(N)=O)NC(=O)CN)[C@@H](C)O)[C@@H](C)O)C(N)=O [S-Pal-HRNR598–623] (H-GQHGSSSGHSSTHGQHGSTSGQSSSC(Palmitoyl)-NH2; N-terminus assumed) | – | – | – | – | LD90 ([2]; pH 5.5, 0.25% glucose): 2.35 µg/mL; LD100 ([2]; pH 5.5, 0.25% glucose): > 150 µg/mL

Compound | LD90 ([1]; pH 5.5, 0.25% glucose) | LD100 ([1]; pH 5.5, 0.25% glucose) | LD90 ([1]; pH 5.5, 1% TSB) | LD100 ([1]; pH 5.5, 1% TSB) | other results
CC(C)C[C@@H](NC(=O)CNC(=O)[C@@H](CO)NC(=O)CNC(=O)[C@@H](Cc1c[nH]cn1)NC(=O)[C@@H](CCCNC(=N)N)NC(=O)CN)C(=O)NCC(=O)N[C@H](Cc1c[nH]cn1)C(=O)N[C@H](CO)C(=O)N[C@H](CO)C(=O)N[C@H](CO)C(=O)N[C@H](Cc1c[nH]cn1)C(=O)NCC(=O)N[C@H](CCC(N)=O)C(=O)N[C@H](Cc1c[nH]cn1)C(=O)NCC(=O)N[C@H](CO)C(=O)NCC(=O)N[C@H](CO)C(=O)NCC(=O)N[C@H](CCCNC(=N)N)C(=O)O [(D)HR 1-18] (H-G[dR][dH]G[dS]G[dL]G[dH][dS][dS][dS][dH]G[dQ][dH]G[dS]G[dS]G[dR]-OH; N-terminus and C-terminus assumed) | 0.038 µg/mL | 0.3 µg/mL | – | – | –
GRHGSGLGHSSSHGQHGSGSGGSSSRGPY [HR 1-17R2-G] | 0.038 µg/mL | 0.15 µg/mL | – | – | –
GRHGSGSGQSSSYGPYGSGSGWSSSRGPY [HRNR1952-1980] | – | – | – | > 300 µg/mL | –
SGQSSRGER [HR 1-3] | – | – | > 300 µg/mL | > 300 µg/mL | –
HTHSGHTHGQSGSQHGESESIIHDR [FLG-21515-1539] | 0.075 µg/mL | 0.59 µg/mL | – | – | –
GRHGSGSGQSSSYGPYRSGSGWSSSRGPY [HRNR1013-1041] | – | – | – | > 300 µg/mL | –
GSRTAGRRGSGH [FLG-22094-2105] | – | > 300 µg/mL | – | – | –
GSGSRQSPSYGRHGSGSGRSSSSGQH [HR 2-11] | – | – | 37.5 µg/mL | > 300 µg/mL | –
GSGSRQSPSYGRHGSGSGR [HR 2-4] | – | – | > 300 µg/mL | > 300 µg/mL | –
SGQSSR [HR 1-2] | – | – | > 300 µg/mL | > 300 µg/mL | –
QSSGHGR [HR 1-5] | – | – | > 300 µg/mL | > 300 µg/mL | –
QSPSY [HR 2-3] | – | – | > 300 µg/mL | > 300 µg/mL | –
GSGSRQSPSYGR [HR 2-8] | – | – | 37.5 µg/mL | > 300 µg/mL | –
QGSGSGQSPSR [HR 1-6] | – | – | > 300 µg/mL | > 300 µg/mL | –
GSGSRQSSGHGRQGSGSGQ [HR 1-16] | – | – | > 300 µg/mL | > 300 µg/mL | –
RQSPSYGRHGSGSGR [HR 2-14] | – | – | 300 µg/mL | > 300 µg/mL | –
SSSRGPY [HR 1-10] | – | – | > 300 µg/mL | > 300 µg/mL | –
GRHGGGGGHGGGHGGHGGGGGR [HR 1-18,L-G/Q-G/6S-6G] | – | 0.15 µg/mL | – | – | –
GRHGSGSGHSSSHGQHGSGSGR [HRNR2186-2207] | – | 4.7 to 9.37 µg/mL | – | – | –
HSQRGSGSRQSPSYGRH [HR 2-16] | – | 37.5 µg/mL | – | – | –
RGSGSGHQGHSSSHGLGSGHRG [rev-HR 1-18] | < 0.019 µg/mL | 0.3 µg/mL | – | – | –
Pal-SHHRHFRSHQCRRQRS NSCDR [Pal-LCE-3C55-75] | – | – | – | – | LD90 ([2]; pH 5.5, 0.25% glucose): 0.15 µg/mL; LD100 ([2]; pH 5.5, 0.25% glucose): 0.59 µg/mL

Compound | LD90 ([1]; pH 5.5, 0.25% glucose) | LD100 ([1]; pH 5.5, 0.25% glucose) | LD90 ([1]; pH 5.5, 1% TSB) | LD100 ([1]; pH 5.5, 1% TSB) | other results
QGSGSGQSPSRGR [HR 1-7] | – | – | > 300 µg/mL | > 300 µg/mL | –
GRHGSGSGQSSSYSPYGSGSGWSSSR [HRNR2422-2447] | – | – | – | > 300 µg/mL | –
GSGSRQSPSRGRHGSGSGR [HR 2-4R] | – | – | – | > 300 µg/mL | –
HAHSGHGQSTQR [FLG-22082-2093] | 0.15 µg/mL | 2.35 µg/mL | – | – | –
QGSGSGQSPGHSQRGSGSRQSPSY [HR 2-1] | – | – | > 300 µg/mL | > 300 µg/mL | –
HSSSHGQHGSGSGR [HR 1-38] | – | > 300 µg/mL | – | – | –
HTHSGHTHGQARSQHGESESIVHER [FLG-21742-1766] | 0.038 µg/mL | 0.15 µg/mL | – | – | –
HGSRSGQSSRGERHGSSSGSSSH [HR 1-11] | 0.075 µg/mL | – | – | – | –
GSGSRQSPSY [HR 2-2] | – | – | > 300 µg/mL | > 300 µg/mL | –
GSGSRQSPSHGRHGSGSGR [HR 2-4H] | – | – | 75 µg/mL | > 300 µg/mL | –
GRHGSGLGHSSSH [HR 1-37] | 9.38 µg/mL | > 300 µg/mL | – | – | –
GSGSRQSLSYGRHGSGSGR [HR 2-4L] | – | – | 75 µg/mL | > 300 µg/mL | –
GRHGSGGGHSSSHGGHGSGSGR [HR 1-18,L-G/Q-G] | – | 0.15 µg/mL | – | – | –
QSPSYGRHGSGSGR [HR 2-5] | – | – | > 300 µg/mL | > 300 µg/mL | –
HAHYGYGQSTQRGSRTTGRRGSGH [FLG-22232-2255] | 0.075 µg/mL | 0.59 µg/mL | – | – | –
THEHEQSHQRRDRQTHEDKQNRQR [RPTN747-770] | 0.3 µg/mL | 150 µg/mL | – | – | –
SLSSGHGSGHGHQRGGHRSGSG [scr-HR 1-18] | < 0.019 µg/mL | 0.15 µg/mL | – | – | –
HTHSGHTHGQAGSHYPESGSSVHER [FLG-21969-1993] | 0.038 µg/mL | 0.3 µg/mL | – | – | –
SRQSPSYGRHGSGR [HR 2-15] | – | – | 75 µg/mL | > 300 µg/mL | –
SRQSPSYGRHGSGSGR [HR 2-13] | – | – | > 300 µg/mL | > 300 µg/mL | –
GSRQSPSYGRHGSGSGR [HR 2-12] | – | – | > 300 µg/mL | > 300 µg/mL | –
QSPSYGR [HR 2-6] | – | – | > 300 µg/mL | > 300 µg/mL | –
